In BindingDB's records for patent US10532048 (Seldar Pharma Inc., 2020) one finds IC50 data, which are given here for 1 molecule.

The test deals with Gastrin-releasing peptide receptor (Homo sapiens, UniProt P30550). Put plainly: BB2 Receptor Antagonistic Activity. The method, then: A BB2 receptor binding test was carried out using a membrane sample prepared from a human prostate cancer-derived PC-3 cell. The PC-3 cell was cultured using an RPMI-1640 medium containing 5% fetal bovine serum, and then a membrane sample was prepared by the following methods. The cells detached by a trypsin treatment were added with a 50 mM Tris-HCl buffer (pH 7.4, containing 0.2 mg/ml trypsin inhibitor and 0.2 mg/ml benzamidine), and homogenized by Polytron. The cell suspension was centrifuged at 1,500 rpm for 10 minutes, and the supernatant thus obtained was subjected to 1 hour of ultracentrifugation at 37,000×g. The precipitate was suspended in the aforementioned buffer to a concentration of 0.4 mg protein/ml, and stored at −80° C.The BB2 receptor binding test was carried out by the following method, and the receptor antagonistic activity of a compound to be tested was calculated. […] Non-specific binding was measured using 1 μM of bombesin. […] The radioactivity on the filter was measured using a microplate scintillation counter (Top Count, Perkin-Elmer Co., Ltd.).
Chain of Gastrin-releasing peptide receptor (P30550 whole entry): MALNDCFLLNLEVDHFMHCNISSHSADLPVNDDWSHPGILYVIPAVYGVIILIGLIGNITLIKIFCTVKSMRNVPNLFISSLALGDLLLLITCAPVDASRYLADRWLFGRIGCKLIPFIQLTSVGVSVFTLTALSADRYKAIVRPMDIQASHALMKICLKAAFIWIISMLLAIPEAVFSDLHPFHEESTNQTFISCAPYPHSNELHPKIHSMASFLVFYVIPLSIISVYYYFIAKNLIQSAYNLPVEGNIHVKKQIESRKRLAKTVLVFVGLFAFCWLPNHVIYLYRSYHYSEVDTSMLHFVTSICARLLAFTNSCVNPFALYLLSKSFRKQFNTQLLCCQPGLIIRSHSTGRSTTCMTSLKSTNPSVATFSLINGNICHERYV

A word on the IC50: it is the concentration that inhibits the measured activity by half. High values mean weaker potency in that assay, low ones greater potency in that assay. As for `O=C(NCCc1ccccc1)[C@@H]1c2ccccc2C(=O)N([C@H](CO)c2ccccc2)[C@H]1c1ccc(Cl)cc1Cl` [US10532048, Example 62], the IC50 came out at 18.3 nM.
